Measurements from US20210393586A1, “Compounds for Use in the Treatment of Bacterial Infections” (Universität Konstanz, priority 2018, published 2021).

Legend:
P. aeruginosa PA01 = test: Bacterial growth curve analysis, P. aeruginosa PAO1; format: cell-based, Pseudomonas aeruginosa; conditions: concentrations up to 100 μM, 27 h at 37° C.
Protocol: (§1) In a sterile 15 mL polypropylene centrifuge tubes with screw caps (Roth) 20 μL of a respective DMSO Stock of the compounds represented by Formulas (2) and (5), or 20 μL DMSO as vehicle control was added for 1% final DMSO concentration. Then, 2 mL of LB medium and 6 μL of an overnight culture of P. aeruginosa PA01 or PA14 was added per sample. The samples were incubated for 27 h at 37° C. (190 rpm). At indicated incubation times 50 μL LB medium and 50 μL of culture were transferred in a cuvette, mixed and the adsorption measured at 600 nm.

P. aeruginosa PA14 [1] = test: Bacterial growth curve analysis, P. aeruginosa PA14; format: cell-based, Pseudomonas aeruginosa; conditions: concentrations up to 100 μM, 27 h at 37° C.
Protocol: as §1

[2] = system: quinolone and phenazine production of P. aeruginosa PAO1; test: Quinolone and phenazine inhibition in P. aeruginosa PAO1 cultures, LC-MS/MS of supernatants; format: cell-based, Pseudomonas aeruginosa
Protocol: (§2) A LC-MS/MS method was established using characteristic mass transitions for quantitative analysis of metabolites in the supernatants of P. aeruginosa (Table 1, FIGS. 13 to 15). A library of phenazines and synthetic AQs and AQNOs served as standards (Szamosvári, D.; Böttcher, T., Angew Chem Int Ed Engl 2017, 56 (25), 7271-7275). There were also analyzed phenazines, including phenazine-1-carboxamide (PHZ-CA), 1-hydroxyphenazine (1-OH-PHZ), and pyocyanin (PYO), which are produced as virulence factors partially under control of the PQS quorum sensing system (FIG. 16a).
(§3) Ultra-high performance liquid chromatography was performed on a Dionex Ultimate 3000 UHPLC (Thermo Fisher Scientific, Waltham, Mass.) using a Nucleodur C18 Gravity-SB 150×2 mm, 3 μm column (Macherey-Nagel). The flow rate was 0.5 mL/min and the columns temperature was held at 40° C. The injection volume was 5 μL using pick up injection mode. Eluent A was 0.1% formic acid in water and eluent B was acetonitrile. The gradient was 20-100% B in 10 min, 100% B for 2 min, 100-20% B in 1 min and 20% B for 2 min. MS/MS analysis was performed by a Finnigan™ TSQ® Quantum (Thermo electron corporation) mass spectrometer in the SRM (Selected Reaction Monitoring) scan mode. As ion source a heated-electrospray ionization (HESI-II probe, Thermo scientific) was used. In the optimized conditions the ion spray voltage was 3500 V, vaporizer temperature 300° C., capillary temperature 380° C., sheath gas pressure 60 psi, ion sweep gas pressure 2 psi, aux gas 10 psi. The tube lens offset was 80 V and skimmer offset 0. Data were acquired in a mass range of m/z 130-350, and MS/MS acquisition of all compounds was performed in positive mode and fixed collision energy of 30 eV. Dwell time was 0.050 sec for all compounds.
The software Quan Browser Thermo Xcalibur 3.1.66.10 was used for quantitative analysis. The standard peak area of the product ions was fitted by linear regression versus the known concentrations to generate a standard curve.
Cultures of P. aeruginosa strains PAO1 and PA14 were incubated with different concentrations of the compound represented by Formula (2) for 24 h and extracted culture supernatants were used for LC-MS/MS analysis.
10 μL of a respective DMSO stock solution of compound represented by Formula (2) or 10 μL DMSO as vehicle control (0.33% final DMSO concentration) was added to 3 mL LB medium in 15 mL polypropylene centrifuge tubes with screw caps (VWR) to obtain final concentrations of 10, 50 and 100 μM. Afterwards 10 μL of a P. aeruginosa PAO1 or PA14 overnight culture was added. The caps of the sample tubes were slightly opened and fixed in a defined position by tape to ensure equal oxygen delivery to all samples. […] (180 rpm). Afterwards, the samples were centrifuged and the supernatants sterile filtered. The inhibition assay was performed in 3-4 biological replicates.
500 μL of sterile supernatant was transferred in 1.5 mL glass vials, 500 μL chloroform was added and vortexed thoroughly. Then, 200 μL of the organic layer was transferred in a clean 1.5 mL glass vial and the solvent evaporated by a gentle stream of nitrogen. The extract was stored at −80° C. until measurement. For analysis, 50 μL acetonitrile/water (1:1) was added to each sample.
MeOH stock solutions of PQS, AQs, AQNOs and phenazines were prepared at 1 mg/mL in glass vials and stored at −80° C. A series of standard solutions was prepared freshly before LC-MS/MS analysis by serial dilutions of the stock solution of each analyte in acetonitrile/water (1:1).

[3] = system: quinolone and phenazine production of P. aeruginosa PA14; test: Quinolone and phenazine inhibition in P. aeruginosa PA14 cultures, LC-MS/MS of supernatants; format: cell-based, Pseudomonas aeruginosa
Protocol: as §2, §3
The software Quan Browser Thermo Xcalibur 3.1.66.10 was used for quantitative analysis. The standard peak area of the product ions was fitted by linear regression versus the known concentrations to generate a standard curve. […]

P. aeruginosa PAO1 = test: Minimum inhibitory concentration, P. aeruginosa PAO1; format: cell-based; conditions: Pseudomonas aeruginosa; P. aeruginosa PAO1, LB, 24 h at 37° C.
Protocol: (§4) An overnight culture of P. aeruginosa PAO1 or PA14 was diluted 1:1000 in LB media. Afterwards, 99 μL of bacterial suspension and 1 μL of a corresponding stock solution of the compound represented by Formula (2) in DMSO was added to each well of a sterile, round-bottom 96-well plate. The compound represented by Formula (2) was applied in final concentrations of 1000, 500, 100, 50, 10, 5, 1, 0.5, 0.1, 0.05 μM in triplicates. The plate was incubated for 24 h at 37° C. (180 rpm).

P. aeruginosa PA14 [4] = test: Minimum inhibitory concentration, P. aeruginosa PA14; format: cell-based; conditions: Pseudomonas aeruginosa; P. aeruginosa PA14, LB, 24 h at 37° C.
Protocol: as §4

PqsD = biological target: T1, PqsD (Pseudomonas aeruginosa, UniProt P20582); test: Proteomic analysis of active site modification of PqsD after in situ inhibition; format: cell-based; conditions: PqsD inhibited in live E. coli cells, tryptic digest, LC-MS
T1 construct: expressed in transfected cells; host or cells: E. coli BL21 containing pDEST/pqsD, induced with anhydrotetracyclin
T1 sequence (P20582 whole entry): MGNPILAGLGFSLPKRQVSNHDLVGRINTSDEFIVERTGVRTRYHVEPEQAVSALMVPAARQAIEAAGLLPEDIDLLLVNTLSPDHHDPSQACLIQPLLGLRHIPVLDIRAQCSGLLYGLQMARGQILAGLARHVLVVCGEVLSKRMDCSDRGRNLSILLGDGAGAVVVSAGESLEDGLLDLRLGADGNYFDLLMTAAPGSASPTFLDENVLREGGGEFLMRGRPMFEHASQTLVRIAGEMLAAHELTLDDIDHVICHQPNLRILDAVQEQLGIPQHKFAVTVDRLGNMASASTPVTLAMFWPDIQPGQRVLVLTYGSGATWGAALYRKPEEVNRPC
Protocol: In situ labelling was performed, and 2×SDS loading buffer was added directly to the resulting lysates. After SDS-PAGE and Coomassie staining, the protein band corresponding to PqsD was cut out of the gel. Then, tryptic digestion, sample preparation and LC-MS analysis were performed: Coomassie gel bands were washed in MilliQ for 15 sec, bands cut as close as possible and placed in Eppendorf tubes. For reduction and alkylation, a solution of 10 mM DTT in 50 mM NH4CO3 was added and incubated for 60 min at 56° C. The DTT solution was removed and a solution of 50 mM iodoacetamide in 50 mM NH4CO3 was added and incubated for 60 min at room temperature (rt). In a final washing step, the gel pieces were washed with 100 μL MilliQ water and 100 μL 50 mM NH4CO3 solution, then the solution was removed, and the gel dehydrated with acetonitrile/MilliQ water (3:2). The washing step was repeated until the gel pieces turned colorless. Next, the dehydration solution was removed, and acetonitrile was added for 10 sec before drying on air until complete dryness. The gel pieces were incubated for […] on ice in a freshly prepared cold buffer containing trypsin (10.0 ng/μL) and 50 mM NH4CO3. […] The combined washes and elutions were dried via SpeedVac and analyzed by an Orbitrap Fusion with EASY-nLC1200 instrument.

[5] = system: HHQ production of P. aeruginosa PAO1; test: 2-ABA feeding of P. aeruginosa PAO1, HHQ quantified by LC-MS/MS; format: cell-based, Pseudomonas aeruginosa; conditions: P. aeruginosa PAO1 grown with 50 μM compound, 2-ABA total 12 mM, 11 h at 37° C.
Protocol: 10 μL of a 5 mM stock of the compound represented by Formula (2) in DMSO or 10 μL of DMSO as vehicle control (1% final DMSO concentration) was added in 1 mL LB medium in 15 mL polypropylene centrifugal tubes. Then, 5 μL P. aeruginosa PAO1 overnight culture was added and grown at 37° C. (190 rpm). Due to the instability of 2-ABA, it was added in six portions. After several time points (6 h, 6.5 h, 7 h, 7.5 h, 8 h and 10 h) the cultures treated with the compound represented by Formula (2) were supplemented with 20 μL 100 mM 2-ABA stock in basic solution (1% NH4OH) or 20 μL basic solution (1% NH4OH) as vehicle control. To investigate the effect of basic solution, the DMSO containing control samples were supplemented with same amounts of basic solution compared to treated samples. The total amount of 2-ABA added to each sample was 12 mM and the pH of the cultures after addition of the total volume of basic solution was under pH 8. After 11 h cultures were centrifuged, supernatants sterile filtered and HHQ extracted and quantified by LC-MS/MS according to the previously described protocol.

Row | Structure (SMILES) | growth (OD 600 nm growth curve) (P. aeruginosa PA01) | growth (OD 600 nm growth curve) (P. aeruginosa PA14 [1]) | inhibition of quinolone production ([2]; P. aeruginosa PAO1, 100 μM, 27 h at 37° C. (FIG. 20a)) | inhibition of quinolone production ([3]; 100 μM, 27 h at 37° C. (FIG. 20b)) | MIC (P. aeruginosa PAO1) [µM] | MIC (P. aeruginosa PA14 [4]) [µM] | production of all major quorum sensing signals, PQS and the chain length congeners of HHQ ([2]; P. aeruginosa PAO1, between 50 μM and 100 μM, 24 h) | intensity of quinolones and phenazines (LC-MS/MS chromatograms) ([2]; P. aeruginosa PAO1, increasing concentrations 10, 50, 100 μM, 24 h) | IC50 ([2]; Pseudomonas aeruginosa, PAO1, 24 h, read-out: average IC50 for production of all major quorum sensing signals, PQS and the chain length congeners of HHQ) [µM] | production of quinolone N-oxide congeners incl. HQNO, NQNO and trans-Δ1-NQNO ([2]; dose response manner, 10, 50, 100 μM, strain not given, 24 h) | phenazine production (1-OH-PHZ, PHZ-CA, pyocyanin) ([2]; strongest for 1-OH-PHZ and weakest for pyocyanin, strain not given, 24 h) | production of all major quorum sensing signals, PQS and the chain length congeners of HHQ ([3]; compared with PAO1 (complete inhibition between 50 μM and 100 μM), 24 h) | intensity of quinolones and phenazines (LC-MS/MS chromatograms) ([3]; increasing concentrations 10, 50, 100 μM, 24 h) | site of covalent binding in PqsD (six cysteines in total) (PqsD) | HHQ production after external addition of 2-ABA to inhibited culture [5]
1 | O=C(CCl)c1cccc2cc[nH]c12 [Formula (5)] | largely unaffected | largely unaffected | observed | observed |  |  |  |  |  |  |  |  |  |  | 
2 | Nc1ccccc1C(=O)CCl [Formula (2), 2′-amino-1-chloro-acetophenone] | largely unaffected | largely unaffected |  |  | > 1000 | > 1000 | completely inhibited | considerably decreased | < 10 | inhibited | down-regulation of phenazines | slightly lesser degree | considerably decreased | only bound to the active site cysteine (Cys112) | partially restored
